Legend:
[1] = system: ES2 (human ovarian cancer) xenograft tumor; assay: Genesis of blood vessels in xenograft tumor treated with compound Y; format: in vivo, Athymic Nu/Nu mice; conditions: ES2 i.p. xenograft, 2.5 mg/kg i.p. daily days 10-15 and 18-22, H&E sections
Description: Method: Athymic Nu/Nu mice (5-6 weeks old) are divided into two groups (1 and 2) with 5 animals in each group. On day 0, all mice were transplanted intra-peritoneally with one million ES2 (human ovarian cancer) cells. Animals were randomly divided into two groups:
Group 2: Drug-treatment group. On days 10-15 and 18-22, animals received daily drug administration of Xanifolia-Y, by i.p. route at dosage of 2.5 mg/kg.
Animals with high tumor burden were euthanized and solid tumors were taken out from these mice (between 18-27 days). Tumor tissues fixed with formalin at room temperature. The fixed tissues were sectioned and stained with Haematoxylin and eosin (H&E). The red blood cells inside the micro blood vessels were identified under a microscope.

[2] = system: Fibronectin; assay: Fibronectin secretion from ES2 cells; format: cell-based, human
Description: (§1) Reduction of Fibronectin secretion from ES2 cells after xanifolia-Y treatment. • (Results of F1, F3, F4, F5, F7, F8, F11, F12A, F15, F16, F17) Data in PCT/US2008/002086, 1188-ALA-PCT, filed Feb. 15, 2008 are incorporated herein by reference • (F11) For lung carcinoma cells (H460), at concentration of 20 ug/ml, there are inhibitions of Fibronectin secretion ranged from 20-60%. • (F12A) For bladder carcinoma cells (HTB-9), Xanifolia-Y (10 ug/ml) inhibits 50% of Fibronectin secretion. • (F15) In liver HepG2 cells. 10 ug/ml of xanifolia-Y inhibits 42% secretion of Fibronectin. • (F16) Incubation of brain glioblastoma T98G cells with 10 ug/ml of xanifolia-Y inhibits 27% Fibronectin secretion and with 20 ug/ml Y inhibits 74% Fibronectin secretion. • (F17) For skin SK-MeI-5 cells, the inhibition is 40-57% with 20 ug/ml of Xanifolia-Y.

[3] = system: Fibronectin; assay: Fibronectin secretion, skin SK-MEL-5 cells; format: cell-based, human; conditions: Homo sapiens, SK-MEL-5; skin SK-MeI-5 cells; 20 ug/ml
Description: as §1

[4] = system: RAB3B, member RAS oncogene family; assay: Microarray gene expression in ES2 cells: RAB3B; format: cell-based, human
Description: (§2) The composition comprises bioactive compounds from natural plants or synthesis. The majority of the plants are from the Sapindaceae family, which has 140-150 genera with 1400-2000 species. The program is based on our purification methods and biological assays including the MTT assay See International Application No. PCT/US05/31900, filed Sep. 7, 2005, U.S. Ser. No. 11/289,142, filed Nov. 28, 2005, and U.S. Ser. No. 11/131,551, filed May 17, 2005, and PCT/US2008/002086, 1188-ALA-PCT, filed Feb. 15, 2008, the contents of which are incorporated herein by reference. The details of Analysis of gene expression of ES2 cells after Y-treatment by Microarray, Data Analysis Methods and Western blot in PCT/US2008/002086, 1188-ALA-PCT, filed Feb. 15, 2008, the contents of which are incorporated herein by reference

[5] = system: angiopoietin 1; assay: Microarray gene expression in ES2 cells: angiopoietin 1; format: cell-based, human; conditions: micro array
Description: as §2
Angiogenesis is a process involving the growth of new blood vessels. It is a normal process in growth and development. However, this is also a fundamental step in the transition of tumors from a dormant state to a malignant state. The angiopoietins are protein growth factors that modulate angiogenesis. […]

[6] = system: ANGPT2 (angiopoietin 2); assay: Gene expression by Real-time PCR: ANGPT2; format: cell-based; conditions: DMSO control = 100
Description: (§3) Determination of gene expression by Real-time PCR method (Brilliant QPCR, Agilent Technologies): The real-time polymerase chain reactions further confirm the results obtained from micro array analysis. The Real-time PCR results (shown below) confirmed that Compound Y3 and YM increase the expression of the genes: ANGPT2, DDIT3, LIF and NFKB1Z

[7] = system: DDIT3 (DNA-damage-inducible transcript 3); assay: Gene expression by Real-time PCR: DDIT3; format: cell-based; conditions: DMSO control = 100
Description: as §3

[8] = system: TNC (Tenascin C); assay: Gene expression by Real-time PCR: TNC; format: cell-based; conditions: control = 100
Description: as §3

[9] = system: FN1 (fibronectin 1); assay: Gene expression by Real-time PCR: FN1; format: cell-based; conditions: control = 100
Description: as §3

In the case of `C/C=C(/C)C(=O)O[C@H]1[C@H](OC(=O)/C(C)=C\C)[C@@]2(CO)C(CC1(C)C)C1=CCC3[C@@]4(C)CC[C@H](O[C@@H]5OC(C(=O)O)[C@@H](O)[C@@H](O[C@@H]6O[C@@H](CO)[C@@H](O)C6O)C5O[C@@H]5OC(CO)[C@H](O)[C@@H](O)C5O)C(C)(C)C4CC[C@@]3(C)[C@]1(C)[C@@H](O)[C@H]2O` (stereo partly drawn) [Y, 3-O-[β-D-galactopyranosyl(1→2)]-α-L-arabinofuranosy (1→3)-β-D-glucuronopyranosyl-21,22-O-diangeloyl-3β, 15α, 16α, 21β, 22α, 28-hexahydroxyolean-12-ene], the “blood vessels in tumor sections” value ([1]; listed as Xanifolia Y) is reported as “More blood vessels were observed in the control Group 1 than those in the drug-treated Group 2”, the “blood vessels in tumor sections” value ([1]; listed as Xanifolia-Y) is reported as “more blood vessels were observed in the control Group1 than those in the drug-treated Group 2” and the “Fibronectin secretion from ES2 cells” value [2] is reported as “Reduction”. For the same compound, the inhibition at 20 µg/mL [3] was 40 to 57%, the “RAB3B expression, treated/D (DMSO control)” value (“RAB3B expression, treated/D” below) ([4]; ID 205924_at) was −1.7 and the “RAB3B expression, treated/D” value ([4]; ID 205925_s_at) was −1.2. The “RAB3B expression, treated/D” value ([4]; ID 227123_at) was −1.6, the “RAB3B expression, treated/D” value ([4]; ID 242629_at) was −3.5 and the “gene expression of angiopoietin 1” value [5] was “inhibit”. For the same compound, the “ANGPT2 expression, % of control” value [6] was 300 % of control, the “DDIT3 expression, % of control” value [7] was 213 % of control and the “TNC expression, % of control” value [8] was 41.1 % of control. The “FN1 expression, % of control” value [9] was 44.1 % of control.

From US8586719B2, “Triterpenes for modulating gene expression and cell membrane, and as antiprotozoal agents” (Pacific Arrow Limited, priority 2005, dated 2013)
